From patent publication US10125123B2, “Small molecule IRE1-α inhibitors” (Cornell University, priority 2016, dated 2018)

Target: T1, IRE1α (Homo sapiens, UniProt O75460)
T1 construct: purchased SignalChem
Experiment: In vitro FRET assay (XBP1 RNA probe cleavage by IRE1α)
Settings: biochemical FRET assay, 2 nM IRE1α
Method: In vitro FRET assay was performed to evaluate the ability of select compounds to inhibit IRE1, the results of which are summarized in the following table.
To perform the in vitro FRET assay, 1× complete assay buffer (CAB; […], 50 mM sodium citrate pH 7.15, 1 mM magnesium acetate, 0.02% Tween 20) was used to dilute SignalChem IRE1α in protein to a final concentration of 2 nM. Selected compounds were serially diluted with DMSO in a non-binding black 384-well plate for a total of 15 μl in each well. 2 μl of the serially diluted compound or DMSO control were then added to new wells containing 98 μl of 1×CAB, for a total volume of 100 μl, 10 μl of which were then transferred to wells of a new plate. 5 μl of the diluted IRE1α was then added to each well. 5 μl of a […] XBP1 RNA probe was then added to each well. Fluorescence was then read over 30 minutes in kinetic mode (485/515 nm). Two RNA probes were used, XBP1 wildtype (CAUGUCCGCAGCACAUG; SEQ ID NO: 1) which is able to be spliced by active IRE1α or XBP1 mutant (CAUGUCCCCAGCACAUG; SEQ ID NO: 2) which is unable to be spliced. Each probe contained a 5′ 6-FAM modification and a 3′ IOWA Black FQ modification. […]

T1 sequence (O75460 19-977): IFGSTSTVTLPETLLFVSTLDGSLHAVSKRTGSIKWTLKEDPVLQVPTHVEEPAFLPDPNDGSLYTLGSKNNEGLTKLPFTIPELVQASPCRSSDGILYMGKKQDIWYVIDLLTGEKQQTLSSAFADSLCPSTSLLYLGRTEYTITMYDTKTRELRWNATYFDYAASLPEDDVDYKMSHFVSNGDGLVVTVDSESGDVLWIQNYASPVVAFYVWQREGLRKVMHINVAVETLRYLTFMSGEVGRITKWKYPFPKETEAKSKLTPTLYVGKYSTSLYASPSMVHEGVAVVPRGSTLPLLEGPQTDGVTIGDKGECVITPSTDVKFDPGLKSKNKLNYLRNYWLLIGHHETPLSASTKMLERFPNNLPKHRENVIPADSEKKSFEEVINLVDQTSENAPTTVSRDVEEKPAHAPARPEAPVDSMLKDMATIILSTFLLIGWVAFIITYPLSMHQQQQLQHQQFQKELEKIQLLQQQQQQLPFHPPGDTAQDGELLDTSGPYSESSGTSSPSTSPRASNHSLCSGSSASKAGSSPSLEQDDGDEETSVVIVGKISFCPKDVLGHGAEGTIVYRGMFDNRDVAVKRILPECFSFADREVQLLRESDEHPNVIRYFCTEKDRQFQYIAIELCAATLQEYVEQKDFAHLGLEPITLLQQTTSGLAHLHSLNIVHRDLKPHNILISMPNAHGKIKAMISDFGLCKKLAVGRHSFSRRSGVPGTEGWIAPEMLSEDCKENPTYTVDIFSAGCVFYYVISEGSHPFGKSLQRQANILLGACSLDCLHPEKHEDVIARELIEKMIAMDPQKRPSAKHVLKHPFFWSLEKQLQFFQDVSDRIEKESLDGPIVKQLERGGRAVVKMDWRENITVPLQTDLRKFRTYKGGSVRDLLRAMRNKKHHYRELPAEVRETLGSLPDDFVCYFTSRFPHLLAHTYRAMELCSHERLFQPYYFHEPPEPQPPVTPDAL

EC50 [µM] | SMILES
5 to 50 | CN1CCN(Cc2ccc(NC(=O)Nc3nc(-c4ccc5ccncc5c4)n(C)n3)cc2C(F)(F)F)CC1 [Compound 34, 1-(5-(isoquinolin-7-yl)-1-methyl-1H-1,2,4-triazol-3-yl)-3-(4-((4-methylpiperazin-1-yl)methyl)-3-(trifluoromethyl)phenyl)urea]
> 100 | Cn1nc(NC(=O)NCc2ccccc2)cc1-c1ccc2ccncc2c1 [Compound 63, 1-benzyl-3-(5-(isoquinolin-7-yl)-1-methyl-1H-pyrazol-3-yl)urea]
> 100 | O=C(Nc1ccc(CN2CCNCC2)c(C(F)(F)F)c1)Nc1ccc2oc(-c3cccnc3)nc2c1 [Compound 13, 1-(4-(piperazin-1-ylmethyl)-3-(trifluoromethyl)phenyl)-3-(2-(pyridin-3-yl)benzo[d]oxazol-5-yl)urea]
> 100 | Cn1nc(NC(=O)Nc2ccccc2F)cc1-c1ccc2ccncc2c1 [Compound 69, 1-(2-fluorophenyl)-3-(5-(isoquinolin-7-yl)-1-methyl-1H-pyrazol-3-yl)urea]
5 to 50 | CN1CCN(Cc2ccc(NC(=O)Nc3cc(-c4ccc(-c5ccc(N)nc5)cc4)[nH]n3)cc2C(F)(F)F)CC1 [Compound 55, 1-(5-(4-(6-aminopyridin-3-yl)phenyl)-1H-pyrazol-3-yl)-3-(4-((4-methylpiperazin-1-yl)methyl)-3-(trifluoromethyl)phenyl)urea]
≤ 5 | Cn1nc(NC(=O)Nc2ccc(CN3CCN(CCO)CC3)c(C(F)(F)F)c2)cc1-c1ccc2ccncc2c1 [Compound 36, 1-(4-((4-(2-hydroxyethyl)piperazin-1-yl)methyl)-3-(trifluoromethyl)phenyl)-3-(5-(isoquinolin-7-yl)-1-methyl-1H-pyrazol-3-yl)urea]
≤ 5 | CN1CCN(Cc2ccc(NC(=O)Nc3cc(-c4ccc5cc(N)ncc5c4)[nH]n3)cc2C(F)(F)F)CC1 [Compound 52, 1-(5-(3-aminoisoquinolin-7-yl)-1H-pyrazol-3-yl)-3-(4-((4-methylpiperazin-1-yl)methyl)-3-(trifluoromethyl)phenyl)urea]
≤ 5 | CC(C)N1CCN(Cc2ccc(NC(=O)Nc3cc(-c4ccc5ccncc5c4)n(C)n3)cc2C(F)(F)F)CC1 [Compound 37, 1-(4-((4-isopropylpiperazin-1-yl)methyl)-3-(trifluoromethyl)phenyl)-3-(5-(isoquinolin-7-yl)-1-methyl-1H pyrazol-3-yl)urea]
5 to 50 | CN1CCN(Cc2ccc(NC(=O)Nc3cc(-c4ccnc5c4ccn5C)n(C)n3)cc2C(F)(F)F)CC1 [Compound 12, 1-(1-methyl-5-(1-methyl-1H-pyrrolo[2,3-b]pyridin-4-yl)-1H-pyrazol-3-yl)-3-(4-((4-methylpiperazin-1-yl)methyl)-3-(trifluoromethyl)phenyl)urea]
> 100 | CNS(=O)(=O)c1ccc(NC(=O)Nc2cc(-c3ccc4ccncc4c3)n(C)n2)cc1 [Compound 70, 4-(3-(5-(isoquinolin-7-yl)-1-methyl-1H-pyrazol-3-yl)ureido)-N-methylbenzenesulfonamide]
> 100 | CN1CCC(Cc2ccc(NC(=O)Cc3cc(-c4ccc5nc(N)ncc5c4)n(C)n3)cc2C(F)(F)F)CC1 [Compound 49, 2-(5-(2-aminoquinazolin-6-yl)-1-methyl-1H-pyrazol-3-yl)-N-(4-((1-methylpiperidin-4-yl)methyl)-3-(trifluoromethyl)phenyl)acetamide]

Continued, compound first:

SMILES | EC50 [µM]
CN1CCN(Cc2ccc(NC(=O)Nc3cc(-c4ccc(-c5cccn6ccnc56)cc4)n(C)n3)cc2C(F)(F)F)CC1 [Compound 54, 1-(5-(4-(imidazo[1,2-a]pyridin-8-yl)phenyl)-1-methyl-1H-pyrazol-3-yl)-3-(4-((4-methylpiperazin-1-yl)methyl)-3-(trifluoromethyl)phenyl)urea] | ≤ 5
CN1CCN(Cc2ccc(NC(=O)Nc3cc(-c4ccc5nc(N)nc(N)c5c4)n(C)n3)cc2C(F)(F)F)CC1 [Compound 29, 1-(5-(2,4-diaminoquinazolin-6-yl)-1-methyl-1H-pyrazol-3-yl)-3-(4-((4-methylpiperazin-1-yl)methyl)-3-(trifluoromethyl)phenyl)urea] | ≤ 5
CN1CCN(Cc2ccc(NC(=O)Nc3cc(-c4ccc5ccncc5c4)n(C)n3)cc2Br)CC1 [Compound 44, 1-(3-bromo-4-((4-methylpiperazin-1-yl)methyl)phenyl)-3-(5-(isoquinolin-7-yl)-1-methyl-1H-pyrazol-3-yl)urea] | 5 to 50
Cn1nc(NC(=O)Nc2ccc(CN3CCCCCC3)c(C(F)(F)F)c2)cc1-c1ccc2ccncc2c1 [Compound 38, 1-(4-(azepan-1-ylmethyl)-3-(trifluoromethyl)phenyl)-3-(5-(isoquinolin-7-yl)-1-methyl-1H-pyrazol-3-yl)urea] | > 100
CN1CCC(Cc2ccc(NC(=O)Nc3cc(-c4ccc5cc(N)ncc5c4)n(C)n3)cc2C(F)(F)F)CC1 [Compound 48, 1-(5-(3-aminoisoquinolin-7-yl)-1-methyl-1H-pyrazol-3-yl)-3-(4-((1-methylpiperidin-4-yl)methyl)-3-(trifluoromethyl)phenyl)urea] | 5 to 50
CN1CCN(CCc2cccc(NC(=O)Nc3cc(-c4ccc5ccncc5c4)n(C)n3)c2)CC1 [Compound 19, 1-(5-(isoquinolin-7-yl)-1-methyl-1H-pyrazol-3-yl)-3-(3-(2-(4-methylpiperazin-1-yl)ethyl)phenyl)urea] | > 100
CN1CCN(Cc2ccc(Nc3c(Nc4cc(-c5ccc6nc(N)ncc6c5)n(C)n4)c(=O)c3=O)cc2C(F)(F)F)CC1 [Compound 75, 3-((5-(2-aminoquinazolin-6-yl)-1-methyl-1H-pyrazol-3-yl)amino)-4-((4-((4-methylpiperazin-1-yl)methyl)-3-(trifluoromethyl)phenyl)amino) cyclobut-3-ene-1,2-dione] | ≤ 5
O=C(Nc1ccc(CN2CCN(Cc3ccccc3)CC2)c(C(F)(F)F)c1)Nc1ccc2oc(-c3cccnc3)nc2c1 [Compound 14, 1-(4-((4-benzylpiperazin-1-yl)methyl)-3-(trifluoromethyl)phenyl)-3-(2-(pyridin-3-yl)benzo[d]oxazol-5-yl)urea] | 50 to 100
Cc1c(NC(=O)Nc2ccc(CN3CCN(C)CC3)c(C(F)(F)F)c2)ccc2oc(-c3cnn4ccccc34)nc12 [Compound 18, 1-(4-methyl-2-(pyrazolo[1,5-a]pyridin-3-yl)benzo[d]oxazol-5 yl)-3-(4-((4-methylpiperazin-1-yl)methyl)-3-(trifluoromethyl)phenyl)urea] | > 100
Cn1nc(NC(=O)c2cccc(-n3cccn3)c2)cc1-c1ccc2ccncc2c1 [Compound 20, N-(5-(isoquinolin-7-yl)-1-methyl-1H-pyrazol-3-yl)-3-(1H-pyrazol-1-yl)benzamide] | > 100
CN1CCN(Cc2ccc(NC(=O)Nc3cc(-c4ccc5cnoc5c4)n(C)n3)cc2C(F)(F)F)CC1 [Compound 2, 1-(5-(benzo[d]isoxazol-6-yl)-1-methyl-1H-pyrazol-3-yl)-3-(4-((4-methylpiperazin-1-yl)methyl)-3-(trifluoromethyl)phenyl)urea] | 5 to 50
CCN1CCN(Cc2ccc(NC(=O)Nc3cc(-c4ccc5ccncc5c4)n(C)n3)cc2C(F)(F)F)CC1 [Compound 35, 1-(4-((4-ethylpiperazin-1-yl)methyl)-3-(trifluoromethyl)phenyl)-3-(5-(isoquinolin-7-yl)-1-methyl-1H-pyrazol-3-yl)urea] | ≤ 5
CN1CCN(Cc2ccc(NC(=O)Nc3cc(-c4cccnc4)[nH]n3)cc2C(F)(F)F)CC1 [Compound 7, 1-(4-((4-methylpiperazin-1-yl)methyl)-3-(trifluoromethyl)phenyl)-3-(5-(pyridin-3-yl)-1H-pyrazol-3-yl)urea] | 5 to 50
CN1CCN(Cc2ccc(NC(=O)Nc3cc(-c4ccc5ncncc5c4)n(C)n3)cc2C(F)(F)F)CC1 [Compound 22, 1-(1-methyl-5-(quinazolin-6-yl)-1H-pyrazo1-3-yl)-3-(4-((4-methylpiperazin-1-yl)methyl)-3-(trifluoromethyl)phenyl)urea] | ≤ 5
CN1CCN(Cc2ccc(NC(=O)Nc3cc(-c4ccc5ccc(O)nc5c4)n(C)n3)cc2C(F)(F)F)CC1 [Compound 23, 1-(5-(2-hydroxyquinolin-7-yl)-1-methyl-1H-pyrazol-3-y1)-3-(4-((4-methylpiperazin-1-yl)methyl)-3-(trifluoromethyl)phenyl)urea] | 5 to 50
O=C(C#Cc1ccccc1)Nc1ccc2oc(-c3cccnc3)nc2c1 [Compound 58, 3-phenyl-N-(2-(pyridin-3-yl)benzo[d]oxazol-5-yl)propiolamide] | > 100
Cc1cc2oc(-c3cnn4ccccc34)nc2cc1NC(=O)Nc1ccc(CN2CCN(C)CC2)c(C(F)(F)F)c1 [Compound 17, 1-(6-methyl-2-(pyrazolo[1,5-a]pyridin-3-yl)benzo[d]oxazol-5-yl)-3-(4-((4-methylpiperazin-1-yl)methyl)-3-(trifluoromethyl)phenyl)urea] | > 100
Cn1nc(NC(=O)Nc2ccc(CN3CCC(O)CC3)c(C(F)(F)F)c2)cc1-c1ccc2ccncc2c1 [Compound 41, 1-(4-((4-hydroxypiperidin-1-yl)methyl)-3-(trifluoromethyl)phenyl)-3-(5-(isoquinolin-7-yl)-1-methyl-1H-pyrazol-3-yl)urea] | > 100
